17 molecules from patent US4950818A, “Method for treating ulcer” (Kuraray Company, Ltd., priority 1988, dated 1990) can be followed below.

The test system of series [1] is HCl-ethanol-induced ulcer at the mucosa of the stomach. Briefly: Antiulcer activity (HCl-ethanol ulcer). It counts as in vivo, rats. Particulars: rat, one hour before HCl-ethanol; for inhibition in vivo at 2.5 mg/kg: 2.5 mg/kg oral; for inhibition in vivo at 1 mg/kg: 1 mg/kg oral; for inhibition in vivo at 5 mg/kg: 5 mg/kg oral. On the procedure: 1.5 ml of aqueous 60% ethanol solution containing 150 mM hydrochloric acid was orally administered to rats. One hour thereafter the rats were sacrificed and the length (mm) of HCl-ethanol-induced ulcer which was generated at the mucosa of the stomach was measured. Sum of the length of ulcer per animal is defined as ulcer coefficient. Specimens were each orally administered one hour before the HCl-ethanol administration. Inhibition rate was calculated by dividing the difference of ulcer coefficients of the control group and the specimen-administered group by the ulcer coefficient of the control group.

A further series in a line: Acute toxicity (oral). The following applies: mouse, in vivo, male ICR-strain mice. On the procedure: Acute toxicity tests through oral administration were carried out using male ICR-strain mice (5 weeks old).
The subject of series [2] is pylorus ligation ulcer at the proventriculus part. Briefly: Antiulcer activity (pylorus ligation ulcer). The series is classed as in vivo, rats. The following applies: rat, 100 mg/kg oral, 30 minutes before pylorus ligation; 13 hours. The procedure:
After rats weighing 210 to 230 g were made to fast for 24 hours, each pylorus part was ligated under ether anesthesia according to Shay et al. method [Castroenterogy, 5, 43 (1945)]. After leaving for 13 hours the animals were sacrificed, and each ulcer which had been generated at the proventriculus part was macroscopicly observed and evaluated according to the following 5 steps of ulcer index:
2; There are hyperemia or 5 or less of small ulcers
(diameter less than 3 mm).
3; There are 5 or more of small ulcers or one large
ulcer (diameter equal to or more than 3 mm).
4; There are 2 or more of large ulcers.
Compound (1) (specimen) as prepared according to the method in Reference example and spizofurone as a control specimen were orally administered 30 minutes before the pylorus ligation. Inhibition rate was calculated by dividing the difference of ulcer coefficients of the control group and the specimen-administered group by the ulcer coefficient of the control group.

The structures appear in SMILES notation. Where only a bound is given, the exact number is not on record here.

In the case of `O=C1C=C(/C=C/c2ccc([N+](=O)[O-])cc2)C(O)O1` (centres unmarked) [(13)], in series [1] (1 h, read-out: Inhibition rate), the inhibition in vivo at 2.5 mg/kg turned out to be 34.1%.

Regarding `O=C1C=C(/C=C/c2c(F)c(F)c(F)c(F)c2F)C(O)O1` (centres unmarked) [(8)], in series [1] (1 h, read-out: Inhibition rate), the inhibition in vivo at 1 mg/kg amounted to 67.4%.

For `O=C1C=C(/C=C/c2cccc(O)c2)C(O)O1` (centres unmarked) [(16)], the inhibition in vivo at 2.5 mg/kg in series [1] (1 h, read-out: Inhibition rate) was found to be 42.7%.

`O=C1C=C(/C=C/c2ccccc2)C(O)O1` (centres unmarked) [Compound (1), 5-hydroxy-4-[2-phenyl-(E)-ethenyl]-2(5H)-furanone]: the 50% lethal dose (LD50) (as a rule, the dose expected to kill half of the subjects tested) in “Acute toxicity (oral)” was not below 2000 mg/kg. Besides, in series [1] (1 h, read-out: Inhibition rate), the inhibition in vivo at 5 mg/kg stood at 97.9%. In series [2], the Inhibition rate is 80.3%.

For the molecule `COc1ccc(OC)c(/C=C/C2=CC(=O)OC2O)c1` (centres unmarked) [(7)], the inhibition in vivo at 5 mg/kg in series [1] (1 h, read-out: Inhibition rate) is 98.6%.

With `N#Cc1ccc(/C=C/C2=CC(=O)OC2O)cc1` (centres unmarked) [(15)], the inhibition in vivo at 5 mg/kg in series [1] (1 h, read-out: Inhibition rate) was determined as 99.4%.

On to `O=C1C=C(/C=C/c2ccc(F)cc2)C(O)O1` (centres unmarked) [(9)], for which the inhibition in vivo at 5 mg/kg in series [1] (1 h, read-out: Inhibition rate) came to 100%.

`Cc1ccc(/C=C/C2=CC(=O)OC2O)cc1` (centres unmarked) [(2)]: the inhibition in vivo at 5 mg/kg in series [1] (1 h, read-out: Inhibition rate) was determined as 98.3%.

Regarding `O=C1C=C(/C=C/c2ccc(Cl)cc2)C(O)O1` (centres unmarked) [(10)], the inhibition in vivo at 5 mg/kg in series [1] (1 h, read-out: Inhibition rate) turned out to be 100%.

For `COc1cccc(/C=C/C2=CC(=O)OC2O)c1OC` (centres unmarked) [(6)], the inhibition in vivo at 1 mg/kg in series [1] (1 h, read-out: Inhibition rate) was determined as 59.8%.

For the molecule `Cc1cc(C)c(/C=C/C2=CC(=O)OC2O)c(C)c1` (centres unmarked) [Compound (3)], in series [1] (1 h, read-out: Inhibition rate), the inhibition in vivo at 5 mg/kg was found to be 100%.

As to `CC(=O)c1ccc2c(c1)C(=O)C1(CC1)O2` [Spizofurone, reference compound], the Inhibition rate is reported as 86.6% in series [1] (100 mg/kg oral) and 1.5% in series [2].

Regarding `COc1ccc(/C=C/C2=CC(=O)OC2O)cc1` (centres unmarked) [(5)], the inhibition in vivo at 2.5 mg/kg in series [1] (1 h, read-out: Inhibition rate) worked out at 98.8%.

Consider `O=C1C=C(/C=C/c2ccc(Cl)cc2Cl)C(O)O1` (centres unmarked) [(12)], for which the inhibition in vivo at 5 mg/kg in series [1] (1 h, read-out: Inhibition rate) stood at 54.1%.

As for `O=C1C=C(/C=C/c2cccc(Cl)c2)C(O)O1` (centres unmarked) [(11)], the inhibition in vivo at 2.5 mg/kg in series [1] (1 h, read-out: Inhibition rate) stood at 91%.

With `CCc1ccc(/C=C/C2=CC(=O)OC2O)cc1` (centres unmarked) [(4)], the inhibition in vivo at 2.5 mg/kg in series [1] (1 h, read-out: Inhibition rate) stood at 86.2%.

On to `CC(=O)CCC=C(C)CCC=C(C)CCC=C(C)CCC=C(C)C` [Teprenone, reference compound], for which the inhibition in vivo at 25 mg/kg in series [1] (1 h, 25 mg/kg oral, read-out: Inhibition rate) was 48.9%.
